Experiments:
[1] = for weight loss during the initial desorption cycle: initial desorption scan 50-0.5% RH; for solid form of the product obtained after the GVS analysis (XRPD): XRPD after completion of the GVS isotherm
Procedure: Gravimetric Vapour Isotherm (GVS) Analysis: Sorption isotherms were obtained using a Hiden Isochema moisture sorption analyser (model IGAsorp), controlled by IGAsorp Systems Software V6.50.48. The sample was maintained at a constant temperature (25° C.) by the instrument controls. The humidity was controlled by mixing streams of dry and wet nitrogen, with a total flow of 250 ml·min^−1. The instrument was verified for relative humidity content by measuring three calibrated Rotronic salt solutions (10-50-80%). The weight change of the sample was monitored as a function of humidity by a microbalance (accuracy +/−0.005 mg). A defined amount of sample was placed in a tared mesh stainless steel basket under ambient conditions. The sample was loaded at 40% RH and 25° C. (typical room conditions). The sample was initially held at 50% RH for ˜80 minutes before the initial desorption cycle was commenced. A moisture sorption isotherm was acquired as outlined in Table 1 (2 scans giving 1 complete cycle). The standard isotherm was collected at a constant temperature (25° C.) and at 10% RH intervals over a 0.5-90% range (80 minutes for each humidity level). Data analysis was undertaken in Microsoft Excel.
The sample was recovered after completion of the isotherm and re-analysed by XRPD.

[2] = Class IV indicates low solubility and low permeability API; cited from earlier work
[3] = cited from earlier work
[4] = marketed nanoparticulate formulation; cited from earlier work

weight loss during the initial desorption cycle ([1]; GVS, 25° C.) [%]	hygroscopicity of the obtained product ([1]; GVS, 25° C., product obtained after initial desorption)	water adsorbed by the obtained product at high relative humidity ([1]; GVS, 25° C., product obtained after initial desorption (converted to H2O cocrystal), high relative humidity) [%]	weight loss over the total desorption-adsorption-desorption cycles ([1]; GVS, 25° C., 0.5-90% RH) [%]	SMILES	solid form of the product obtained after the GVS analysis (XRPD) [1]	BCS class [2]	solubility in acetonitrile ([3]; acetonitrile)	solubility in ethanol ([3]; ethanol)	solubility in isopropyl acetate ([3]; isopropyl acetate)	solubility in water ([3]; water)	mean absolute bioavailability [4]
4.3	not hygroscopic	0.5		CCO.C[C@@H](O[C@H]1OCCN(Cc2n[nH]c(=O)[nH]2)[C@H]1c1ccc(F)cc1)c1cc(C(F)(F)F)cc(C(F)(F)F)c1.O=C(O)[C@@H]1CCCN1	entirely the 1:1:1 aprepitant L-proline H2O cocrystal						
4.4			6.3	CCCO.C[C@@H](O[C@H]1OCCN(Cc2n[nH]c(=O)[nH]2)[C@H]1c1ccc(F)cc1)c1cc(C(F)(F)F)cc(C(F)(F)F)c1.O=C(O)[C@@H]1CCCN1	entirely the 1:1:1 aprepitant L-proline H2O cocrystal						
				C[C@@H](O[C@H]1OCCN(Cc2nc(=O)[nH][nH]2)[C@H]1c1ccc(F)cc1)c1cc(C(F)(F)F)cc(C(F)(F)F)c1 [Aprepitant]		Class IV	slightly soluble	sparingly soluble	sparingly soluble	practically insoluble	60-65%

From patent publication US9532993B2, “Aprepitant L-proline solvates—compositions and cocrystals” (priority 2011, dated 2017)
